Test results from patent US10952940B2, “Reagents and methods for mineralization of tooth enamel” (UNIVERSITY OF WASHINGTON, priority 2016, dated 2021).
Several values for one entry are separate records, joined by “and”; a condition that tells them apart may be missing. Equal entries are not always repeated. Entries after “also recorded” stand apart in the source; their conditions may differ. Where no end group is shown, it is not given here.

What was measured:
[1] = Solid binding affinity to HAp
From the text: The ADP5 peptide was generated using a procedure that was developed for designing protein derived peptides as described previously. Briefly, 7-AA and 12-AA long hydroxyapatite binding peptides (HABPs) were experimentally selected using the c7c- and 12-phage libraries (New England BioLabs Inc., Ipswich, Mass., USA), respectively. Next, the 180 amino acid-long human amelogenin protein (rM180) was divided into 7-AA and 12-AA long segments and each segment was compared with all of the 155 experimentally selected HABPs. The regions with high similarity scores from 7-AA and 12-AA long segments were overlapped and those coinciding high similarity regions were chosen as the putative strong binding regions. These computationally determined high similarity regions were then refined to design the ADPs by protein structure prediction, Ca^2+ ion-binding domain predictions, and meta-functional signature analyses. Two separate assays were developed to characterize the ADPs: Solid binding affinity to HAp and mineralization in aqueous solution. […] Because of this property, ADP5 has been used for developing mineralization on human teeth. […] For this, we eliminated the six amino acids from the amino end and alanine from the carboxyl end, while keeping the charged amino acids intact that are thought to initiate mineralization. […]

[2] = Mineralization in aqueous solution (kinetics)
Experimental: Fast kinetics refers to fast mineral formation, such as immediate mineral formation, while slow mineral formation refers to mineral formation over a period of time, such as about 5 minutes to about 1 hour. In some embodiments, a first biomineralizing peptide having faster kinetics can be used in combination with a second biomineralizing peptide having slower kinetics.
The ADP5 peptide was generated using a procedure that was developed for designing protein derived peptides as described previously. Briefly, 7-AA and 12-AA long hydroxyapatite binding peptides (HABPs) were experimentally selected using the c7c- and 12-phage libraries (New England BioLabs Inc., Ipswich, Mass., USA), respectively. Next, the 180 amino acid-long human amelogenin protein (rM180) was divided into 7-AA and 12-AA long segments and each segment was compared with all of the 155 experimentally selected HABPs. The regions with high similarity scores from 7-AA and 12-AA long segments were overlapped and those coinciding high similarity regions were chosen as the putative strong binding regions. These computationally determined high similarity regions were then refined to design the ADPs by protein structure prediction, Ca^2+ ion-binding domain predictions, and meta-functional signature analyses. […]

[3] = Layer-by-layer mineralization by peptide in solution on white spot lesion; set-up: species or system human; settings: 0.8 mM sADP5
Experimental: On extracted human tooth, the entire tooth was painted with lacquer (nail polish) except a 3 mm by 3 mm window on enamel. This window was subjected to etching then remineralization. The following steps were then carried out:
• 1. Etch enamel surface aqueous solution of 2.2 mM K2HPO4, 2.2 mM CaCl2, and 50 mM acetic acid at pH 4.5 for 2 weeks, changing solution every other day, to create white spot lesion (WSL) […]. • 2. Soak in 100 ml of 0.8 mM sADP5 solution at 37 C for 10 minutes then blot dry with tissue paper. • 3. Soak in 600 ml of 4.8 mM CaCl2+2.8 mM K2HPO4 in pH 7.4 Tris buffer at 37 C for 1 hour. • 4. Drip rinse with DI water for 20 seconds then blot dry with Kimwipe™ sheet. • 5. Repeat steps 3-4 to add more mineralized layers. Results & Discussions—

[4] = Side-by-side comparison of peptide-mineralized whitening versus commercial whitening products; settings: Image-J analysis of optical images; strip 30 mins, gel 10 minutes, peptide 0.8 mM 10 mins + artificial saliva 1 hr
Experimental: The whitening products were used according to the manufacturers' directions. For the strip, the product was applied to the pre-stained tooth for 30 mins and peeled off. Then the samples were rinsed with water for 1 min to clean the surface of the teeth from any residues from the strip. In the case of the second product, the gel was applied to the pre-stained teeth for 10 minutes and then cleaned by rinsing with water for 1 minute. In the peptide-remineralization case, the stained teeth were incubated with sADP5 (SEQ ID NO:24) peptide solution (0.8 mM) for 10 mins., followed by soaking in the artificial saliva (for 1 hr) that was supplemented with 4.8 mM Ca and 2.9 mM PO4 ionic concentrations.
The samples treated with whitening products or with the remineralization method were prepared for optical imaging for color change and also for surface characterization with scanning electron microscopy. The images of the teeth samples were recorded using a light optical microscopy technique under compact fluorescent light. The recorded images were digitized and examined with Image-J Line (NIH Software) for quantitative analysis of the color change (a, d, f and h). The cross-sectioned samples were prepared for SEM examination of the internal as well as surface structure of the teeth, and the results are shown in FIG. 15 (e, g, and i, plus their inset images).

[5] = 0.8 mM sADP5 10 minutes, then Ca/PO4 1 hour at 37° C.
Experimental: Extracted human teeth samples were collected from University of Washington clinics. The enamel tissue was cut out the using low speed saw on a perpendicular direction to the underlying dentin tubules. Next, the smear layer on the dentin was removed by polishing down to 0.1 um finish and etching for 10 seconds using 10% citric acid solution. For remineralization treatment, samples were soaked into 200 ul of 0.8 mM sADP5 peptide (SEQ ID NO:24) solution and incubated for 10 minutes at 37° C. Next, excess peptide was removed by blotting and the sample was soaked in 24 mM Tris Buffer solution supplemented with 4.8 mM Ca and 2.88 mM PO4 ions for 1 hour at 37° C. Following the remineralization treatment, samples were rinsed with deionized water, dried in air and characterized with scanning electron microscope

Substance	binding to HAp [1]	mineralization kinetics [2]	Ca/P of new mineral layers ([3]; after 4 repetitions)	number of distinctive mineral layers formed ([3]; after 4 repetitions of the mineralization steps)	increase of tooth shade above tea-stained baseline [4]	depth of mineral penetration into tubules [5]	occlusion of exposed dentin tubules [5]
(PGYIN(L/F)SYE(K/N)SHSQAIN(T/V)DRTA)1-10 [ADP5]	one of the weakest binding peptides	fastest mineralization kinetics; also recorded: fast kinetic profile	–	–	–	–	–
(SYEKSHSQAINTDRT)1-10 (also: repeated 1-10 times) [sADP5]	–	–	1.43+0.15	4	4.64% and 4.6%	2-3 um	successfully occluded
(HPP(S/T)HTLQPHHH(L/I)PVVPAQQPV(A/I)PQQPMMPVPG(H/Q)HSMTP(T/I)QH)1-10 [ADP7]	–	slow kinetic profile	–	–	–	–	–
